Test results from US5534521A, “Benzimidazole compounds” (G. D. Searle & Co., priority 1994, dated 1996).

Columns and labels:
5-HT3 = test: Bezold-Jarisch Reflex (5-HT-induced bradycardia in anesthetized mice); format: in vivo; conditions: i.p., 30 min before 5-HT (0.25 mg/kg i.v.), >50 percent reduction in bradycardic response vs vehicle
Procedure: (§1) 5-HT4 agonist activity was determined in the in vitro rat tunica muscularis mucosae (TMM) assay. (Baxter et al., Naunyn Schmied Arch. Pharmacol, 1991, 343, 439). The 5-HT4 agonist or antagonist activity and/or 5-HT3 antagonist activity of the compounds of the invention herein, can be determined by the assays as described herein, without undue experimention.
The compound to be evaluated was administered i.p. (mg/kg) to a group of 3 mice.
This method has been described by Saxena, P. R. and Lawang, A., Arch. Int. Pharmacodyn., 277:235-252, 1985.

5-HT3 receptor = target: T1, 5-HT3 receptor (Rattus norvegicus, UniProt P35563); test: Serotonin (5-HT3) radioligand receptor binding, [3H]-GR65630, rat brain cortex membranes
T1 construct: Brain cortices were obtained from male rats and a membrane fraction prepared by standard techniques; from tissue; host or cells: rat brain cortex membranes (male rats)
T1 sequence (P35563 24-483): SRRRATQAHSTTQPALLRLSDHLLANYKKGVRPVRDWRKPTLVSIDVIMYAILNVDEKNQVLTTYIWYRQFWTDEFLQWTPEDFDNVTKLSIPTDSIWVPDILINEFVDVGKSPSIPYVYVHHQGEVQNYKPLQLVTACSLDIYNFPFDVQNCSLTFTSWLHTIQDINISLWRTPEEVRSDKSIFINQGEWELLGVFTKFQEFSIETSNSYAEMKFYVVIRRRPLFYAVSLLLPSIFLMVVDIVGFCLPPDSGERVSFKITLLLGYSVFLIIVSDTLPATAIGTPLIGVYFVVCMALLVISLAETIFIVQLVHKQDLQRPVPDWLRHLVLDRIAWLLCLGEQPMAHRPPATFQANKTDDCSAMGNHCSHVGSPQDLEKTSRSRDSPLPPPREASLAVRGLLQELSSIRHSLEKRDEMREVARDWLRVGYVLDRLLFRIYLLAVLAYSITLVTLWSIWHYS
Procedure: as §1
GR65630 binds to the 5-HT3 receptor. Brain cortices were obtained from male rats and a membrane fraction prepared by standard techniques. 0.04 mg of membrane prep was incubated with 0.2 nM […] for 60 minutes at 22° C. […] Kilpatrick G. J., Jones B. J. and Tyers M. B. Identification and distribution of 5-HT3 receptors in rat brain using radioligand binding assay. Nature, 330: 746-748, 1987.

5-HT4 receptor = target: T2, 5-HT4 receptor (Rattus norvegicus, UniProt Q62758); test: cell-based; conditions: carbachol (3 μM) contracted rat tunica muscularis mucosae, 37° C., cumulative addition, tissues from 5 rats; read-out: 5-HT4 Agonism (Rat TMM) In Vitro Assay: EC50 Values
T2 construct: One 2 cm segment of intrathoracic esophagus proximal to the diaphragm was removed from male rats; from tissue; host or cells: rat intrathoracic esophagus, inner tunica muscularis mucosae (male rats)
T2 sequence (Q62758 whole entry): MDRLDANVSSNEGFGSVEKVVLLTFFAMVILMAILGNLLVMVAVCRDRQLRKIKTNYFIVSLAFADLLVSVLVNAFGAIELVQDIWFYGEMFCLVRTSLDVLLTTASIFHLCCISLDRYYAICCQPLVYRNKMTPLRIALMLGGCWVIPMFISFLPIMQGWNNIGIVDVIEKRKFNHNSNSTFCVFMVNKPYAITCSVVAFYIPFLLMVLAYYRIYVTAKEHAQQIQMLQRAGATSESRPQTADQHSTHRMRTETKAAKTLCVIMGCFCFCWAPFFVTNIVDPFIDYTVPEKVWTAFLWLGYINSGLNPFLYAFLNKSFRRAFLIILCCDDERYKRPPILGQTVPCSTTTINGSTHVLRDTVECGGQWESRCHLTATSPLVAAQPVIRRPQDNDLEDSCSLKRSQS
Procedure: as §1
Agonist activity was determined utilizing relaxation of carbachol-contracted rat tunica muscularis mucosae. One 2 cm segment of intrathoracic esophagus proximal to the diaphragm was removed from male rats, weighing approximately 300 gm, and the outer muscle layers removed. The inner tunica muscularis mucosa was mounted under 0.2-0.3 g of tension in a tissue bath containing oxygenated Tyrode's solution at 37° C. […] Following a 30 min equilibrium period, tissues were isometrically contracted with carbachol (3 μM) to obtain a tonic contraction. A stable plateau was obtained within 20 min when test compound was added cumulatively to relax the muscle strip. EC50 values were obtained for each agonist in tissues from 5 rats.

CC(C)n1c(=O)n(C(=O)NC[C@@H]2CCN3CCC[C@@H]23)c2ccccc21 (relative stereo) [Example 23, cis-N-[(hexahydro-1H-pyrrolizin-1-yl)methyl]-2,3-dihydro-3-(1-methylethyl)-2-oxo-1H-benzimidazole-1-carboxamide]
Minimum Effective Dose (MED) (5-HT3): 1 mg/kg
Ki (5-HT3 receptor): 0.075 µM
EC50 (5-HT4 receptor): 0.374 µM

CN1C2CCCC1CC(NC(=O)c1nn(C)c3ccccc13)C2 (stereo not drawn) [BRL-43694]
Minimum Effective Dose (MED) (5-HT3): 0.05 mg/kg

CC(C)n1c(=O)n(C(=O)NCCC23CCCN2CCC3)c2ccccc21 [Example 13, N-[2-(hexahydro-7aH-pyrrolizin-7a-yl)ethyl]-2,3-dihydro-3-(1-methylethyl)-2-oxo-1H-benzimidazole-1-carboxamide]
Minimum Effective Dose (MED) (5-HT3): 10 mg/kg

CC(C)n1c(=O)n(C(=O)NC2C3CC4CC2CN(C4)C3)c2ccc(Cl)cc21 (stereo not drawn) [Example 17, N-(1-azatricyclo[3.3.1.1^3,7]decan-4-yl)-5-chloro-2,3-dihydro-3-(1-methylethyl)-2-oxo-1H-benzimidazole-1-carboxamide]
inhibition at 10 µM (5-HT3 receptor; 1 h, read-out: Effect of Compounds on [H]-GR65630 Bound (0.2 nM), % @ 10,000 nM): 41%

CC(C)n1c(=O)n(C(=O)NC2C3CC4CC2CN(C4)C3)c2cc(Cl)ccc21 (stereo not drawn) [Example 22B, N-(1-azatricyclo[3.3.1.1^3,7]decan-4-yl)-6-chloro-2,3-dihydro-3-(1-methylethyl)-2-oxo-1H-benzimidazole-1-carboxamide]
Ki (5-HT3 receptor): 0.0049 µM

Cc1nc[nH]c1CCC(=O)c1cn(C)c2ccccc12 [GR65630]
% Specific Binding (5-HT3 receptor; radioligand, non-specific binding in the presence of 1 uM ICS 205-930): 70%

O=c1[nH]c2ccccc2n1CCCN1CCC(n2c(=O)[nH]c3cc(Cl)ccc32)CC1 [domperidone]
Minimum Effective Dose (MED) (5-HT3): > 10 mg/kg

CCC(CO)NC(=O)C1C=C2c3cccc4c3c(cn4C)CC2N(C)C1 (stereo not drawn) [methylsergide]
Minimum Effective Dose (MED) (5-HT3): > 10 mg/kg

CCN(CC)CCNC(=O)c1cc(Cl)c(N)cc1OC [metoclopramide]
Minimum Effective Dose (MED) (5-HT3): 5 mg/kg

CN1[C@@H]2C[C@@H](OC(=O)[C@H](CO)c3ccccc3)C[C@H]1[C@@H]1O[C@@H]12 [scopolamine]
Minimum Effective Dose (MED) (5-HT3): 2.5 mg/kg
